Each block holds one molecule with its values, some of them ahead of it.
Tests used:
[1] = biological target: MonCI (Streptomyces cinnamonensis); assay: ITC; MicroCal ITC200, 25 °C, 100 mM phosphate pH 8.0; MonCI in the cell (60 μM with wild-type MonACPX 1.2 mM in the syringe; 100 μM with control ACP 1.0 mM in the syringe); 20 injections; one site model; performed twice
MonCI [2] = biological target: T1, MonCI (Streptomyces virginiae, UniProt Q846W9); assay: LC-MS of epoxide products; assay type: biochemical; settings: 160 µM FHB, 15 µM MonCI, 80 µM FAD, Fre, NADH or NADH regeneration (glucose dehydrogenase), 50 mM Tris pH 8.0, 300 mM NaCl, 30 °C, 6 h
T1 construct: gene monC1; N-terminal 6xHis-tag, pCold vector, E. coli BL21-AI; model covers residues 4-480 (chain A), last residue 496
T1 sequence (Q846W9 1-496): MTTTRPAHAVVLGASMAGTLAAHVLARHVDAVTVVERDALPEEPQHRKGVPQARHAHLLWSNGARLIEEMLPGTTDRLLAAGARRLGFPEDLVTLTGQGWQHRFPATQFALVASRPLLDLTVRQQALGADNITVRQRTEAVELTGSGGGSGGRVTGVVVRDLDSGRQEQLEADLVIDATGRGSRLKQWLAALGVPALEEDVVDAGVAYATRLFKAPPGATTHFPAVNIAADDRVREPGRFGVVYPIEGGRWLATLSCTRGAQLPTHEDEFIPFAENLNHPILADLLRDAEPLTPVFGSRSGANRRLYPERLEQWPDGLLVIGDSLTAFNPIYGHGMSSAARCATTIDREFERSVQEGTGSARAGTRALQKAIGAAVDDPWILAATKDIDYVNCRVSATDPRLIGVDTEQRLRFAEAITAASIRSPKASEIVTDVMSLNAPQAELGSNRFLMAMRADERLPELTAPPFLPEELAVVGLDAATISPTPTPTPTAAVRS

MonCI [3] = biological target: T1, MonCI; assay: HPLC of epoxide product; assay type: biochemical; settings: electron donor, 4 mM; FHB 160 µM, Tris pH 8.0, 30 °C, 6 h
MonCI [4] = biological target: T1, MonCI; assay: X-ray crystal structure, […] Å; assay type: binding; settings: noncovalently bound, co-purified; isoalloxazine ring in "in" conformation; pH 6.5-6.8 crystals

Kd [1]: 49.8 µM
Molecule: apo-DEBS ACP2 (domain or fragment)

Molecule: CC(C)=CCCC(C)=CCCC(C)=CCOC(=O)c1ccc(O)cc1 [FHB, farnesyl 4-hydroxybenzoate]
LC-MS of epoxide products (MonCI [2]): MonCI can perform multiple epoxidations on the same substrate molecule

Kd [1]: 10.7 µM
Molecule: wild-type apo-MonACPX (natural protein)

Molecule: NC(=O)C1=CN([C@@H]2O[C@H](COP(=O)(O)OP(=O)(O)OC[C@H]3O[C@@H](n4cnc5c(N)ncnc54)[C@H](O)[C@@H]3O)[C@@H](O)[C@H]2O)C=CC1 [NADH]
HPLC of epoxide product (MonCI [3]): MonCI has similar preference for NADH and NADPH

Molecule: Cc1cc2nc3c(=O)[nH]c(=O)nc-3n(C[C@H](O)[C@H](O)[C@H](O)COP(=O)(O)OP(=O)(O)OC[C@H]3O[C@@H](n4cnc5c(N)ncnc54)[C@H](O)[C@@H]3O)c2cc1C [FAD]
X-ray crystal structure, 1.9 Å (MonCI [4]): One FAD coenzyme and one chloride ion were found in each chain

— publication PMC10560226, “Triepoxide formation by a flavin-dependent monooxygenase in monensin biosynthesis” (Nature Communications, 2023)
